Data set [1] is described as follows: Pharmacokinetic studies in rat (i.v.). In kind it is in vivo. Particulars: dose 1.37 mg/kg (I-71, I-128), 1.33 mg/kg ((S) I-67); for concentration at 0.25 h / concentration at 1 h / concentration at 4 h / AUC(0-t) / half-life: male, Sprague-Dawley, rat, plasma; for concentration at 0.25 h / concentration at 1 h / concentration at 4 h: intravenous; for concentration at 0.25 h / concentration at 1 h / concentration at 4 h / Plasma concentration: rat i.v.; for AUC(0-t) / half-life: iv, rat plasma, i.v.; for half-life: estimated from 2 points only; for concentration at 4 h / Plasma concentration: 4 h. The procedure, abridged:
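Male Sprague-Dawley rats (~225-350 g) received compounds intravenously via tail vein in 5% Tween-80 in saline. Saphenous blood was sampled at 0.25, 1 and 4 h and analysed by LC-MS/MS. t1/2 and AUC0-tlast came from non-compartmental analysis using the linear up/log down trapezoidal rule.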

The next data set addresses T1, human 5-HT1A receptor (Homo sapiens, UniProt P08908).
T1 sequence (P08908 1-422): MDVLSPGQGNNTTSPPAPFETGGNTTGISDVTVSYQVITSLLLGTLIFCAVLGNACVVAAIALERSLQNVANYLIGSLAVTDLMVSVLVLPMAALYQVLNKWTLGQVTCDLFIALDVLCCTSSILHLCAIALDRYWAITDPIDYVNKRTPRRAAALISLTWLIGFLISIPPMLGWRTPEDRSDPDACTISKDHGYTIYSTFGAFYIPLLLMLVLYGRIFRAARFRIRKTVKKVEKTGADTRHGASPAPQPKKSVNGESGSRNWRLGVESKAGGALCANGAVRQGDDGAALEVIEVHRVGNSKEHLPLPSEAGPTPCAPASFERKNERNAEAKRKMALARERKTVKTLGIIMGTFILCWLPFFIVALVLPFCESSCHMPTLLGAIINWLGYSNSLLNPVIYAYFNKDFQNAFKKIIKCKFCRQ
In words: Human 5-HT1A radioligand binding assay ([3H]-8-Hydroxy-DPAT). Also on record: expressed in transfected cells; host or cells: HTR1A&Gα15-CHO. The procedure, abridged:
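Human 5-HT1A membranes (20 μg/well) incubated 90 min at 27 °C with [3H]-8-Hydroxy-DPAT and 8 compound concentrations (5-fold dilutions). Bound ligand collected on PEI-treated GF/B filters and counted. IC50 from Hill fit of % inhibition normalized to high/low controls.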

The mark [2] stands for this setting: first individual rat (R01/R04), read-out: Plasma concentration.
[3] abbreviates: mean of 3 rats, read-out: Plasma concentration, Mean ± SD.
Setting [4] is: second individual rat (R02/R05), read-out: Plasma concentration.
Where [5] appears, read: third individual rat (R03/R06), read-out: Plasma concentration.
[6] abbreviates: first individual rat (R01/R04), read-out: AUC0-tlast.
[7] abbreviates: first individual rat (R01/R04), read-out: Apparent t1/2 (converted).
[8] abbreviates: mean of 3 rats, read-out: AUC0-tlast, Mean ± SD.
The mark [9] stands for this setting: mean of 3 rats, read-out: Apparent t1/2, Mean ± SD (converted).
[10] abbreviates: second individual rat (R02/R05), read-out: AUC0-tlast.
Setting [11] is: second individual rat (R02/R05), read-out: Apparent t1/2 (converted).
Setting [12] is: third individual rat (R03/R06), read-out: AUC0-tlast.
[13] abbreviates: third individual rat (R03/R06), read-out: Apparent t1/2 (converted).

Here are results for 2 compounds from patent US20250257034A1, “INDOLE DERIVATIVES AS SEROTONERGIC AGENTS USEFUL FOR THE TREATMENT OF DISORDERS RELATED THERETO” (priority 2023, published 2025).

In general, IC50 refers to the concentration needed to halve the response being measured.

Read-outs that look alike come from different tables or passages of the source.

Regarding `COc1ccc2[nH]cc(CCN(C)CCOC(F)F)c2c1` [Compound I-71, 2-(Difluoromethoxy)-N-(2-(5-methoxy-1H-indol-3-yl)ethyl)-N-methylethan-1-amine], the concentration at 0.25 h in data set [1] (setting [2]) was 292 ng/mL; in data set [1] (setting [3]) it was 286 ± 6.03 ng/mL; in data set [1] (setting [4]), 280 ng/mL; in data set [1] (setting [5]), 287 ng/mL. The concentration at 1 h in data set [1] (setting [2]) is 61.5 ng/mL; in data set [1] (setting [3]), 82.5 ± 19.1 ng/mL; in data set [1] (setting [4]), 87.2 ng/mL; in data set [1] (setting [5]), 98.9 ng/mL. The concentration at 4 h in data set [1] (setting [2]) was found to be 1.27 ng/mL; in data set [1] (setting [3]), 1.82 ± 0.582 ng/mL; in data set [1] (setting [4]), 1.77 ng/mL; in data set [1] (setting [5]), 2.43 ng/mL. Further, the AUC(0-t) in data set [1] (setting [6]) was determined as 253 ng·h/mL; in data set [1] (setting [8]) it was 275 ± 21.7 ng·h/mL; in data set [1] (setting [10]) it was 275 ng·h/mL; in data set [1] (setting [12]), 297 ng·h/mL. In addition, the half-life in data set [1] (setting [7]) was 29.6 min; in data set [1] (setting [9]) it was 31.2 ± 1.69 min; in data set [1] (setting [11]) it was 31.1 min; in data set [1] (setting [13]) it was 32.9 min. Moreover, on human 5-HT1A receptor ([3H]-8-Hydroxy-DPAT displacement (Table 51), read-out: h5-HT1A, IC50), the IC50 came to 51 nM.
As for `CN(C)CCc1c[nH]c2ccc(OCCOC(F)F)cc12` [Compound I-128, 2-(5-(2-(Difluoromethoxy)ethoxy)-1H-indol-3-yl)-N,N-dimethylethan-1-amine], the concentration at 0.25 h in data set [1] (setting [2]) is 146 ng/mL; in data set [1] (setting [3]), 138 ± 9.07 ng/mL; in data set [1] (setting [4]) it was 128 ng/mL; in data set [1] (setting [5]) it was 139 ng/mL. Moreover, the concentration at 1 h stood at 19 ng/mL in data set [1] (setting [2]), 15.2 ± 3.32 ng/mL in data set [1] (setting [3]), 13.1 ng/mL in data set [1] (setting [4]) and 13.4 ng/mL in data set [1] (setting [5]). For the same compound, the AUC(0-t) stood at 99 ng·h/mL in data set [1] (setting [6]), 92.5 ± 6.63 ng·h/mL in data set [1] (setting [8]), 85.7 ng·h/mL in data set [1] (setting [10]) and 92.9 ng·h/mL in data set [1] (setting [12]). The half-life is 15.3 min in data set [1] (setting [7]), 14.1 ± 1.04 min in data set [1] (setting [9]), 13.7 min in data set [1] (setting [11]) and 13.3 min in data set [1] (setting [13]). The Plasma concentration result in data set [1] (first individual rat (R01/R04)), in data set [1] (second individual rat (R02/R05)) and in data set [1] (third individual rat (R03/R06)) was “No Peak” each time. For the same compound, on human 5-HT1A receptor, the IC50 stood at 87 nM.
